Earlier results in patent US20240228797A1, “LIQUID REPELLENT SLIPPERY SURFACES AND METHODS OF PREPARATION THEREOF” (priority 2021, published 2024).

In the case of CC(C)CCCC(C)CCCC(C)CCCCC(C)CCCC(C)CCCC(C)C (stereo not shown) [Squalane, squalane], the water solubility is listed as “extremely low water solubility”.
